For six compounds, mass density and speed of sound results are on record in the NIST ThermoML archive (doi:10.1016/j.fluid.2014.01.019).

The conditions of the series: Liquid; for mass density: 101.33 kPa, Vibrating tube method; for speed of sound: 101 kPa, Frequency=2 MHz, Linear variable-path acoustic interferometer.

± gives the expanded uncertainty stated by the source.

`Cc1ccccc1Cl` [2-chlorotoluene]: the mass density runs as follows: (298.15 K) 1076.47 ± 0.15 kg/m3; (303.15 K) 1072.86 ± 0.15 kg/m3; (308.15 K) 1068.21 ± 0.15 kg/m3; (313.15 K) 1064.01 ± 0.15 kg/m3. Moreover, the speed of sound reads like this: (303.15 K) 1285 ± 8 m/s; (313.15 K) 1248 ± 8 m/s.

Consider `Cc1ccccc1[N+](=O)[O-]` [2-nitrotoluene], for which the mass density is, setting by setting: (298.15 K) 1159.6 ± 0.19 kg/m3; (303.15 K) 1153.29 ± 0.18 kg/m3; (308.15 K) 1149.78 ± 0.18 kg/m3; (313.15 K) 1144.91 ± 0.18 kg/m3. The speed of sound (303.15 K) turned out to be 1439 ± 9 m/s and the speed of sound (313.15 K) was determined as 1403 ± 9 m/s.

With `Cc1cccc(Cl)c1` [3-chlorotoluene], the mass density is, setting by setting: (298.15 K) 1067.25 ± 0.15 kg/m3; (303.15 K) 1062.79 ± 0.15 kg/m3; (308.15 K) 1058.29 ± 0.15 kg/m3; (313.15 K) 1053.49 ± 0.15 kg/m3. The speed of sound runs as follows: (303.15 K) 1281 ± 8 m/s; (313.15 K) 1247 ± 8 m/s.

In the case of `Cc1cccc([N+](=O)[O-])c1` [3-nitrotoluene], the mass density runs as follows: (298.15 K) 1152.23 ± 0.18 kg/m3; (303.15 K) 1147.67 ± 0.18 kg/m3; (308.15 K) 1142.67 ± 0.18 kg/m3; (313.15 K) 1137.98 ± 0.18 kg/m3. The speed of sound is, setting by setting: (303.15 K) 1442 ± 9 m/s; (313.15 K) 1409 ± 9 m/s.

With `Cc1ccc(Cl)cc1` [4-chlorotoluene], the mass density (298.15 K) is 1064.93 ± 0.16 kg/m3, the mass density (303.15 K) was found to be 1059.56 ± 0.16 kg/m3, the mass density (308.15 K) is 1054.27 ± 0.15 kg/m3 and the mass density (313.15 K) is given as 1049.29 ± 0.15 kg/m3. In addition, the speed of sound was found to be 1274 ± 8 m/s (303.15 K) and 1237 ± 8 m/s (313.15 K).

Take `OCc1ccccc1` [benzenemethanol]: the mass density is 1041.44 ± 0.14 kg/m3 (298.15 K), 1037.67 ± 0.14 kg/m3 (303.15 K), 1033.75 ± 0.14 kg/m3 (308.15 K) and 1029.91 ± 0.14 kg/m3 (313.15 K). In addition, the speed of sound is reported as 1514 ± 9 m/s (303.15 K) and 1485 ± 9 m/s (313.15 K).
